Assay results taken from patent US20020147136A1, “Compounds for targeting endothelial cells, compositions containing the same and methods for their use” (priority 2000, published 2002).
Residues, ends and D or L forms follow the SMILES beside them.

Legend:
[1] = test system: Human aortic endothelial cells (HAEC); assay: Free TKPPR peptide inhibition of TKPPR-conjugated bead binding to HAEC; assay type: cell-based
Method: HAEC were seeded into each well of an 8-well chamber slide (Collagen I Cellware, Becton Dickinson) and allowed to achieve confluence at 37° C. Solutions containing both TKPPR-beads (final concentration 4.9×10^6/mL) and green control beads (final concentration 4.9×10^6/mL) were prepared in D-PBS containing protease inhibitor cocktail (final dilution 1:50) and 0, 10, 25, 50, 100, 200, or 500 μM free TKPPR peptide. 0.25 mL of each microsphere solution was added to a well in the drained chamber slide and incubated at RT for 15 min. Two wells received the bead solution (mixed unconjugated and TKPPR beads as indicated above) lacking free competing TKPPR peptide. The slide was then washed three times with 0.5 mL D-PBS containing 0.1% Tween 20, fixed with methanol for 1 min and mounted. The three images for each level of TKPPR competition and the six images of the control were averaged and the % inhibition of binding was calculated using the following equation:
% Inhibition=100×(Control Density−Competition Density)/Control Density
A total of eleven 8-well slides were evaluated for competitive TKPPR-bead binding to HAEC on 7 different days.

HAEC = assay: TKPPR-bead binding to endothelial cells under flow; assay type: cell-based, human; settings: flow 1.91 mL/min, 37° C.
Method: Circular 40 mm diameter glass coverslips (Bioptechs, Cat No. 40-1313-0319) were first derivative by dipping in 3-aminopropyltriethoxysilane (Pierce, Cat No. 80370ZZ), 20% in acetone (HPLC grade, Sigma Aldrich Cat No. 27,072-5), rinsed in acetone, and air-dried. After autoclaving, the derivatized coverslips were placed into 60 mm round, sterile culture dishes, one coverslip per dish. Five mL of a Collagen I solution (Becton Dickinson, Cat No. 40236), 41.6 μg/mL in 20 mM acetic acid (adjusted to pH 6.7 with NaOH), was added to each coverslip-containing dish. After 15 min, 0.25 mL of 11.5 mg/mL bis(sulfosuccinimidyl) suberate (Pierce, Cat No. 21580ZZ) was added to each dish and mixed in by swirling. After a 105-minute incubation, the dishes were drained and 5 mL of sterile TBS (20 mM Tris-HCl, pH 7.5, 140 mM NaCl) was added to each dish. […]
Coverslips containing confluent HAEC were mounted into a Bioptechs FCS2 parallel plate flow cell mounted on an Olympus IMT-2 inverted microscope. […] Wall shear stress T, in dynes/cm^2, was calculated using the equation (Lawrence et al., Blood 75:227-237, 1990): [formula]
Bead binding of equal numbers of red fluorescent beads conjugated with TKPPR and green fluorescent beads conjugated with glycine was monitored after increasing lengths of perfusion and variable lengths of subsequent washing with the same solution lacking microspheres.

NP-1/Fc = assay: Inhibition of 125I-VEGF165 binding to NP-1/Fc; settings: 250 pM 125I-VEGF165, 4° C., 2 hours
Method: The ability of various compositions comprising TKPPR monomers or multimers to inhibit ^125I-VEGF binding to NP-1 was evaluated using NP-1/Fc. Competitive binding assays with microtiter plates coated with NP-1/Fc (R&D sytems) were performed using ^125I-VEGF165 as radioligand (Amersham Pharmacia Biotech Cat. No. IM274, Specific Activity: 1000-2500 Ci/mmol). […] Plates (Nunc MaxiSorp white opaque Microtiter plate [C-bottom, 437796]) were coated by incubating the wells with 75 µl of a solution containing 3 μlg/mL NP-1/Fc in D-PBS/0.1% NaAzide overnight at 4° C. after covering with sealing tape (Dynex, VWR Cat. No. 62402-931). […] All points were derived from triplicate wells, and for each set of replicates in NP-1/Fc-coated wells, a companion set in the absence of the receptor was included. For competitive binding, a series of unlabelled competitor concentrations were prepared in a 250 pM solution of ^1251-VEGF165 in assay buffer Solutions were added to 1.2 ml polypropylene tubes conforming to the microtiter format (Costar Cat. No. 29442-602), and transferred from these tubes to microtiter wells, without further dilution, using a multichannel pipettor. After addition of the appropriate solutions, microtiter plates were incubated at 4° C. for 2 hours. […] The plates were blotted dry and 25 μl deionized water and 100 μl scintillation fluid (Optiphase SuperMix, Wallac) were added to each well. Plates were agitated using a Plate Shaker (Hyperion, Cat. No. 4030-100F) for 3-5 minutes and were then counted using a Microplate Scintillation Counter (Wallac Microbeta Trilux) A set of serially diluted 125I-VEGF165 standard wells ranging from 200 to 0.04 pM were included with each experiment to aid in quantification of the amount of radiolabel bound.

Neuropilin-1/Fc = assay: Fluorescence polarization binding to NP-1/Fc; settings: unlabeled competitor; read-out: IC50 for competing BRU-326 binding to NP-1
Method: The ability of various compositions comprising TKPPR monomers or multimers to bind to NP-1/Fc and KDR-Fc was evaluated using FP. The binding studies of various Oregon Green (OG)-labeled compounds comprising TKPPR monomers or multimers and related compounds with Neuropilin-1/Fc, and KDR-Fc (both from R&D Systems), were carried out at 37° C. in D-PBS buffer (pH 7.4). FP values (mP) for each substrate was measured by titrating the ligand (5-20 nM) with receptor protein using a Jolley Research and Consulting FPM-1 fluorescence Polarization analyzer. In each of these experiments the observed polarization values were plotted against receptor concentration. The mP values for 100% binding of tracer labeled ligand to receptor protein was calculated using the software provided by the vendor.

- IC50 (NP-1/Fc): 43 µM
- IC50 (Neuropilin-1/Fc): 80 µM
Compound: CC(O)C(N)C(=O)NC(CCCCN)C(=O)N1CCCC1C(=O)N1CCCC1C(=O)NC(CCCNC(=N)N)C(=O)O [TKPPR, L-Arginine, L-threonyl-L-lysyl-L-prolyl-L-prolyl] (H-TKPPR-OH; configuration not given here)
- Average (n = 11) % Inhibition of TKPPR-bead binding ([1]; free TKPPR 10 μM): 30.8%
- Average (n = 11) % Inhibition of TKPPR-bead binding ([1]; free TKPPR 25 μM): 50.7%
- Average (n = 11) % Inhibition of TKPPR-bead binding ([1]; free TKPPR 50 μM): 50.5%
- Average (n = 11) % Inhibition of TKPPR-bead binding ([1]; free TKPPR 100 μM): 62.0%
- Average (n = 11) % Inhibition of TKPPR-bead binding ([1]; free TKPPR 200 μM): 72.2%
- Average (n = 11) % Inhibition of TKPPR-bead binding ([1]; free TKPPR 500 μM): 70.6%
- Beads bound at 1.53 dynes/cm^2 (HAEC): 86
